From ChEMBL document CHEMBL6177950, “Discovery of potent and selective CDK2 inhibitors with high safety and favorable bioavailability for the treatment of cancer” (Eur J Med Chem, 2025) come the findings set out here.

Each structure is given as a SMILES string. Calls of active or inactive are those of the source. The calls are words filed in the database; no cut-off is given here.

Data set [1] can be described thus: Acute toxicity in ICR mouse assessed as pathological changes in kidney at 1000 to 2500 mg/kg, po administered once for 14 days by H and E staining analysis. The class given is organism-based. Particulars: in vivo, 336 h, dose 1000-2500 mg/kg, time 14 day.
The target in data set [2] is Cyclin-dependent kinase 4/cyclin D1 (Homo sapiens, UniProt P11802). In words: Inhibition of CDK4/Cyclin D1 (unknown origin) pre-incubated for 10 mins followed by ATP/substrate addition and measured after 60 mins by ADP-Glo assay. Type of data set: protein-complex assay. On the technique in general: In ADP-Glo the light output rises with the ADP produced.
Sequence of Cyclin-dependent kinase 4/cyclin D1 (P11802 whole entry): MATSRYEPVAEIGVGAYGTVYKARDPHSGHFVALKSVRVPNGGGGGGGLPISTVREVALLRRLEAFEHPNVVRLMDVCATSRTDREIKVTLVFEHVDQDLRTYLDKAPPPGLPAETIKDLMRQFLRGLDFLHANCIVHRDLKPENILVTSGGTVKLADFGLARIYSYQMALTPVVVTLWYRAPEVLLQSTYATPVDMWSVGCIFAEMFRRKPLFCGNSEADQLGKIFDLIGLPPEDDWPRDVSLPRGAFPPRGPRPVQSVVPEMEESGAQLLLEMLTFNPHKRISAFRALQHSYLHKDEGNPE
Sequence of Cyclin-dependent kinase 4/cyclin D1 (P24385 whole entry, further chain): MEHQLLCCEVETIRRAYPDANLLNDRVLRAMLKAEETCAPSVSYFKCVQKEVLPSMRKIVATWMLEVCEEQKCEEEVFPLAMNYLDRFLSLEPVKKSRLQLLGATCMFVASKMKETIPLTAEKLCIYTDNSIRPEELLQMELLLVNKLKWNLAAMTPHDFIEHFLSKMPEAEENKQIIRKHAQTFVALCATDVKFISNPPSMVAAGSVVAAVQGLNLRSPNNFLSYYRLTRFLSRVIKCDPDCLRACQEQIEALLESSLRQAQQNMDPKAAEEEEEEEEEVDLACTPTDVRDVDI
For data set [3], the system named is OVCAR-3. In words: Induction of apoptosis in human OVCAR-3 cells assessed as early apoptotic cells at 2 uM incubated for 24 hrs by Annexin V-FITC/PI staining based flow cytometry analysis (reference value: 1.25%). Type of data set: functional.
Data set [4] in a line: Clearance in Sprague-Dawley rat at 20 mg/kg, po by LC-MS/MS analysis. The class given is ADME, organism-based. The note with it: in vivo.
Data set [5] deals with OVCAR-3. In words: Induction of cell cycle arrest in human OVCAR-3 cells assessed as accumulation of cells at G1 phase at 2 uM incubated for 24 hrs by flow cytometry analysis (reference value: 67.73%). Type of data set: functional. A general note: Flow cytometry measures light scatter and fluorescence of single cells or particles in a stream.
Data set [6] is described as follows: Half life in Sprague-Dawley rat at 20 mg/kg, po by LC-MS/MS analysis. The class given is ADME, organism-based. The note with it: in vivo.
The nature of data set [7]: Acute toxicity in ICR mouse assessed as pathological changes in lung at 1000 to 2500 mg/kg, po administered once for 14 days by H and E staining analysis. The class given is organism-based. The note with it: in vivo, 336 h, dose 1000-2500 mg/kg, time 14 day.
For a further data set, the target named is CDK1/Cyclin A (Homo sapiens, UniProt P06493). Kind of data set: Inhibition of CDK1/Cyclin A2 (unknown origin) pre-incubated for 10 mins followed by ATP/substrate addition and measured after 60 mins by ADP-Glo assay. The class given is protein-complex assay.
Sequence of CDK1/Cyclin A (P06493 whole entry): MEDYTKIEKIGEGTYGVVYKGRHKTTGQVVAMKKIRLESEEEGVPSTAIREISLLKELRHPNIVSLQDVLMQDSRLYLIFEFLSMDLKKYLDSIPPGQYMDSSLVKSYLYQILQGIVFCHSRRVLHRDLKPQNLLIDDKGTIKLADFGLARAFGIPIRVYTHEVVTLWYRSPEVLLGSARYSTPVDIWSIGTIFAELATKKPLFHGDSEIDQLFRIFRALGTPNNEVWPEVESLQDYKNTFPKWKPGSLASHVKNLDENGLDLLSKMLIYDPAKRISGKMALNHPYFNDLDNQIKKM
Sequence of CDK1/Cyclin A (P20248 whole entry, further chain): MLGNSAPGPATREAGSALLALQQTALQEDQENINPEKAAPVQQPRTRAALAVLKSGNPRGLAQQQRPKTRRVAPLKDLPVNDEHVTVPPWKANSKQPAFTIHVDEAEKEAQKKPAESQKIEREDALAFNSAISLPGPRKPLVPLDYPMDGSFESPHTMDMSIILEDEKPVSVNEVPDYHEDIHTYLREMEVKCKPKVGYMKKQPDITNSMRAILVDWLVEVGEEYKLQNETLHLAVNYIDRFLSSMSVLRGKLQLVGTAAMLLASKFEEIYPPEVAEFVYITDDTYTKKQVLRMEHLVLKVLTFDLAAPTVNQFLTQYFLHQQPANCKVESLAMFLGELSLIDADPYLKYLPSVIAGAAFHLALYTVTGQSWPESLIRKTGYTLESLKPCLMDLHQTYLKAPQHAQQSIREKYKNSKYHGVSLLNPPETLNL
The subject of data set [8] is OVCAR-3. In words: Induction of apoptosis in human OVCAR-3 cells assessed as late apoptotic cells at 1 uM incubated for 24 hrs by Annexin V-FITC/PI staining based flow cytometry analysis (reference value: 2.67%). The class given is functional.
Data set [9] relates to OVCAR-3. In words: Upregulation of inflammation-related pathway gene expression in human OVCAR-3 cells by GSEA. Type of data set: functional, cell-based.
Data set [10] can be described thus: Acute toxicity in ICR mouse assessed as reduction in body weight at 1000 to 2500 mg/kg, po administered once and measured immediately. The class given is organism-based. Particulars: in vivo, dose 1000-2500 mg/kg.
A short description of data set [11]: Toxicity in nude BALB/c mouse xenografted with human OVCAR-3 cells assessed as increase in body weight at 40 to 80 mg/kg, po administered once daily for 21 days. Type of data set: organism-based. The note with it: in vivo, 504 h, dose 40-80 mg/kg, time 21 day. For orientation: A xenograft is tissue or cells of one species grown in another, often human tumour cells in immunodeficient mice.

A short description of data set [12]: Antiproliferative activity against CCNE1-amplified human OVCAR-3 cells assessed as cell growth inhibition incubated for 3 days by CCK8 assay. Type of data set: functional, cell-based. The note with it: OVCAR-3, 72 h.
The nature of data set [13]: Tmax in Sprague-Dawley rat at 20 mg/kg, po by LC-MS/MS analysis. The class given is ADME, organism-based. The note with it: in vivo.
The test system of a further data set is MCF7. In words: Antiproliferative activity against wild type human MCF7 cells assessed as cell growth inhibition. Type of data set: functional, cell-based.
The nature of data set [14]: Half life in Sprague-Dawley rat at 2 mg/kg, iv by LC-MS/MS analysis. Type of data set: ADME, organism-based. Particulars: in vivo.
Data set [15] is described as follows: MRT (0 to infinity) in Sprague-Dawley rat at 20 mg/kg, po by LC-MS/MS analysis. The note with it: in vivo. Type of data set: ADME, organism-based.
Data set [16] is described as follows: Acute toxicity in ICR mouse assessed as effect on heart weight at 1000 to 2500 mg/kg, po administered once for 14 days. The note with it: in vivo, 336 h, dose 1000-2500 mg/kg, time 14 day. The class given is organism-based.
For data set [17], the system named is OVCAR-3. In words: Induction of apoptosis in human OVCAR-3 cells assessed as viable cells at 2 uM incubated for 24 hrs by Annexin V-FITC/PI staining based flow cytometry analysis (reference value: 95.2%). The class given is functional. Particulars: read-out: Activity.
A short description of data set [18]: Acute toxicity in ICR mouse assessed as pathological changes in heart at 1000 to 2500 mg/kg, po administered once for 14 days by H and E staining analysis. Particulars: in vivo, 336 h, dose 1000-2500 mg/kg, time 14 day. Type of data set: organism-based.
A short description of data set [19]: Acute toxicity in ICR mouse assessed as effect on spleen weight at 1000 to 2500 mg/kg, po administered once for 14 days. The class given is organism-based. Particulars: in vivo, 336 h, dose 1000-2500 mg/kg, time 14 day.

`CCC(C)n1cc(-c2nc(NC3CCN(S(=O)(=O)C4CC4)CC3)ncc2F)cc(F)c1=O` (stereo unspecified): the Activity result in data set [1] is “Non-toxic”; with OVCAR-3 [3] it was 3.81%; with OVCAR-3 [5] it was 96.27%; in data set [7] it was “Non-toxic”; with OVCAR-3 [8] it was 7.72%; in data set [10] it was “Toxic”. Further, the Activity result in [11], in data set [16], in data set [18] and in [19] was “Non-toxic” in each case. The IC50 came to 103 nM in data set [2], 15 nM at CDK1/Cyclin A, 1610 nM in data set [12] and 186 nM in the data set with MCF7. In addition, the apparent clearance (CL/F) in [4] was 29.2 mL/min/kg. Also, the half-life in data set [6] is 4.54 h; in [14] it was 0.93 h. Also, in the data set with OVCAR-3 [9], the outcome was Active. In [13], the Tmax turned out to be 0.5 h. The MRT inf in data set [15] was 6.7 h. Besides, the viability at 2 µM in the data set with OVCAR-3 [17] was determined as 79.3%.

One may read the IC50 as the concentration needed to halve the response being measured. By CL/F is commonly meant the apparent clearance, not corrected for the fraction that reaches the circulation. As usually defined, the half-life is the time in which the quantity being followed falls by half. A high value points to slow decline. A word on the Tmax: it is the time at which the peak concentration occurs. What is called MRT inf is a mean duration of stay, worked out from the concentration-time curve.
